# Data taken from the supplement of paper PMC4862054.
# Tested on: HDQ-P1
# Test: normalised response (% of control), CellTox Green; higher = less cell death (100 = DMSO, 0 = benzethonium chloride kill control)
# Settings: incubation time: 72 h
# How it was run: (§1)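 Plates were normalised with 0.1 % DMSO as 100 and a positive kill control as 0. Breast cancer cell lines in 20 µl suspension had been seeded into 384-well plates with compound at 5 concentrations in 10-fold steps over a compound-specific 10,000-fold range, incubated 72 h, and read for CellTox Green fluorescence (485/520 nm) followed by CellTiter-Glo luminescence. Each value is the normalised signal at a single concentration.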
row,SMILES,normalised response
1,CCCC(CCC)C(=O)O [Valproic acid] (100000 nM),75.3%
2,COc1cc(Nc2ncc(F)c(Nc3ccc4c(n3)NC(=O)C(C)(C)O4)n2)cc(OC)c1OC [Tamatinib] (1000 nM),105%
3,Nc1nccc(-c2c(-c3ccc(F)cc3)ncn2C2CCCCC2)n1 (1000 nM),103%
4,FC(F)c1nc2ccccc2n1-c1nc(N2CCOCC2)nc(N2CCOCC2)n1 [ZSTK474] (1000 nM),49.5%
5,C[C@@H]1CCN(C(=O)CC#N)C[C@@H]1N(C)c1ncnc2[nH]ccc12 [Tofacitinib] (500 nM),102%
6,COC(=O)C[C@](O)(CCCC(C)(C)O)C(=O)O[C@@H]1C(OC)=C[C@]23CCCN2CCc2cc4c(cc2[C@H]13)OCO4 [Omacetaxine] (1000 nM),74.8%
7,CS(=O)(=O)CCNCc1ccc(-c2ccc3ncnc(Nc4ccc(OCc5cccc(F)c5)c(Cl)c4)c3c2)o1 [Lapatinib] (100 nM),92.8%

# Tested on: HCC1937
# Test: as above
# Settings: incubation time: 72 h
# How it was run: as §1
row,SMILES,normalised response
1,Cc1cc(C(C)Nc2ccccc2)c2nc(N3CCOCC3)cc(=O)n2c1 (stereo unspecified) [TGX-221] (1000 nM),102%
2,CCCC(CCC)C(=O)O [Valproic acid] (100000 nM),86.4%
3,Nc1nccc(-c2c(-c3ccc(F)cc3)ncn2C2CCCCC2)n1 (1000 nM),91.5%
4,CN(c1ccccc1CNc1nc(Nc2ccc3c(c2)CC(=O)N3)ncc1C(F)(F)F)S(C)(=O)=O (1000 nM),111%
5,FC(F)c1nc2ccccc2n1-c1nc(N2CCOCC2)nc(N2CCOCC2)n1 [ZSTK474] (1000 nM),101%
6,C[C@@H]1CCN(C(=O)CC#N)C[C@@H]1N(C)c1ncnc2[nH]ccc12 [Tofacitinib] (500 nM),132%
7,COC(=O)C[C@](O)(CCCC(C)(C)O)C(=O)O[C@@H]1C(OC)=C[C@]23CCCN2CCc2cc4c(cc2[C@H]13)OCO4 [Omacetaxine] (1000 nM),24.1%
8,CS(=O)(=O)CCNCc1ccc(-c2ccc3ncnc(Nc4ccc(OCc5cccc(F)c5)c(Cl)c4)c3c2)o1 [Lapatinib] (100 nM),118%

# Tested on: MDA-MB-453
# Test: as above
# Settings: incubation time: 72 h
# How it was run: as §1
row,SMILES,normalised response
1,Cc1cc(C(C)Nc2ccccc2)c2nc(N3CCOCC3)cc(=O)n2c1 (stereo unspecified) [TGX-221] (1000 nM),105%
2,CCCC(CCC)C(=O)O [Valproic acid] (100000 nM),111%
3,COc1cc(Nc2ncc(F)c(Nc3ccc4c(n3)NC(=O)C(C)(C)O4)n2)cc(OC)c1OC [Tamatinib] (1000 nM),103%
4,Nc1nccc(-c2c(-c3ccc(F)cc3)ncn2C2CCCCC2)n1 (1000 nM),107%
5,CN(c1ccccc1CNc1nc(Nc2ccc3c(c2)CC(=O)N3)ncc1C(F)(F)F)S(C)(=O)=O (1000 nM),106%
6,FC(F)c1nc2ccccc2n1-c1nc(N2CCOCC2)nc(N2CCOCC2)n1 [ZSTK474] (1000 nM),103%
7,C[C@@H]1CCN(C(=O)CC#N)C[C@@H]1N(C)c1ncnc2[nH]ccc12 [Tofacitinib] (500 nM),101%
8,COC(=O)C[C@](O)(CCCC(C)(C)O)C(=O)O[C@@H]1C(OC)=C[C@]23CCCN2CCc2cc4c(cc2[C@H]13)OCO4 [Omacetaxine] (1000 nM),115%
9,CS(=O)(=O)CCNCc1ccc(-c2ccc3ncnc(Nc4ccc(OCc5cccc(F)c5)c(Cl)c4)c3c2)o1 [Lapatinib] (100 nM),92.5%

# Tested on: CAL-148
# Test: as above
# Settings: incubation time: 72 h
# How it was run: as §1
row,SMILES,normalised response
1,Cc1cc(C(C)Nc2ccccc2)c2nc(N3CCOCC3)cc(=O)n2c1 (stereo unspecified) [TGX-221] (1000 nM),90.8%
2,CCCC(CCC)C(=O)O [Valproic acid] (100000 nM),85.4%
3,COc1cc(Nc2ncc(F)c(Nc3ccc4c(n3)NC(=O)C(C)(C)O4)n2)cc(OC)c1OC [Tamatinib] (1000 nM),102%
4,Nc1nccc(-c2c(-c3ccc(F)cc3)ncn2C2CCCCC2)n1 (1000 nM),98.4%
5,CN(c1ccccc1CNc1nc(Nc2ccc3c(c2)CC(=O)N3)ncc1C(F)(F)F)S(C)(=O)=O (1000 nM),96.8%
6,FC(F)c1nc2ccccc2n1-c1nc(N2CCOCC2)nc(N2CCOCC2)n1 [ZSTK474] (1000 nM),89.5%
7,C[C@@H]1CCN(C(=O)CC#N)C[C@@H]1N(C)c1ncnc2[nH]ccc12 [Tofacitinib] (500 nM),108%
8,COC(=O)C[C@](O)(CCCC(C)(C)O)C(=O)O[C@@H]1C(OC)=C[C@]23CCCN2CCc2cc4c(cc2[C@H]13)OCO4 [Omacetaxine] (1000 nM),93.1%
9,CS(=O)(=O)CCNCc1ccc(-c2ccc3ncnc(Nc4ccc(OCc5cccc(F)c5)c(Cl)c4)c3c2)o1 [Lapatinib] (100 nM),77.7%

# Tested on: CAL-120
# Test: normalised response (% of control), CellTiter-Glo; higher = more viable cells (100 = DMSO, 0 = benzethonium chloride kill control)
# Settings: incubation time: 72 h
# How it was run: as §1
row,SMILES,normalised response
1,Cc1cc(C(C)Nc2ccccc2)c2nc(N3CCOCC3)cc(=O)n2c1 (stereo unspecified) [TGX-221] (1000 nM),94.8%
2,CCCC(CCC)C(=O)O [Valproic acid] (100000 nM),96.1%
3,COc1cc(Nc2ncc(F)c(Nc3ccc4c(n3)NC(=O)C(C)(C)O4)n2)cc(OC)c1OC [Tamatinib] (1000 nM),97.2%
4,Nc1nccc(-c2c(-c3ccc(F)cc3)ncn2C2CCCCC2)n1 (1000 nM),108%
5,CN(c1ccccc1CNc1nc(Nc2ccc3c(c2)CC(=O)N3)ncc1C(F)(F)F)S(C)(=O)=O (1000 nM),81%
6,FC(F)c1nc2ccccc2n1-c1nc(N2CCOCC2)nc(N2CCOCC2)n1 [ZSTK474] (1000 nM),65.4%
7,C[C@@H]1CCN(C(=O)CC#N)C[C@@H]1N(C)c1ncnc2[nH]ccc12 [Tofacitinib] (500 nM),98.6%
8,COC(=O)C[C@](O)(CCCC(C)(C)O)C(=O)O[C@@H]1C(OC)=C[C@]23CCCN2CCc2cc4c(cc2[C@H]13)OCO4 [Omacetaxine] (1000 nM),26.9%
